Measurements reported in patent US20090246169A1, “INDOLOPYRIDINES AS EG5 KINESIN MODULATORS” (priority 2006, published 2009).

Target: T1, Eg5 kinesin motor domains (Homo sapiens, UniProt P52732)
T1 construct: The ATPase activity of Eg5 kinesin motor domains (Cytoskeleton, cat. No. EG01); purchased Cytoskeleton EG01
T1 sequence (P52732 18-359 limits assumed): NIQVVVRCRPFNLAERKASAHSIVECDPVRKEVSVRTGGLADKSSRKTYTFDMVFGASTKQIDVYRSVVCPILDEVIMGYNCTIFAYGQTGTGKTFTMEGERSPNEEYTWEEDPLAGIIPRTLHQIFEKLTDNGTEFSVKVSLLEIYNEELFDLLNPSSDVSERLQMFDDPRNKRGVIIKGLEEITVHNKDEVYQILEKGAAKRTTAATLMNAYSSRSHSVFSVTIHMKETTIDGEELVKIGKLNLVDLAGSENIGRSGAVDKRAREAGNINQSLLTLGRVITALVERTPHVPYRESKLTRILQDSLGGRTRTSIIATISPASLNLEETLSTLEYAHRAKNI
Test: Eg5 ATPase activity assay (Malachite green)
Type: biochemical
Settings: 300 μM ATP, 250 nM microtubules, 30 min room temperature, read-out: Inhibition of Eg5 activity, −log IC50 [mol/l] (converted)
Procedure: The ATPase activity of Eg5 kinesin motor domains (Cytoskeleton, cat. No. EG01) can be used to monitor the effects of modulating agents. The test compounds are dissolved as 10 mM solutions in dimethylsulfoxide (DMSO). 2 μl of appropriate DMSO dilutions of the test compounds are added to each well of a 96 well flat bottom plate. Each compound dilution is tested as triplicates. The reagents are added and the final reaction of the standard assay contains 15 mM Pipes, pH 6.8, 5.0 mM MgCl2, 0.5 mM KCl, 1 mM EGTA, 0.1 mg/ml BSA, 1 μM Paclitaxel, 250 nM preformed microtubules (Cytoskeleton, cat. No. MT001), 300 μM ATP, and Eg5 protein (50 ng) in a reaction volume of 100 μl. The controls include buffer wells with ATP and 2% DMSO. Reactions are started by the addition of ATP, incubated at room temperature for 30 min., and terminated by removing 20 μl of the reaction volume and adding it to 80 μl of 1 M perchloric acid, followed by the addition of 80 μl Malachite green reagent. […] The reactions are incubated for a further 20 min. and then read at 615 nm.
The corresponding IC50 values of the compounds for Eg5 inhibition are determined from the concentration-effect curves.
Representative inhibitory values [measured as −log IC50 (mol/l)] determined in the aforementioned assay follow from the following table A, in which the numbers of the compounds correspond to the numbers of the examples.

How did the IC50 turn out when `COc1ccc2[nH]c3c(c2c1)C[C@@]1(C)C(=O)N(CCN(C)C)C(=O)N1[C@@H]3c1ccccc1` (racemic) [Example 1, (3aSR,10RS)-2-(2-Dimethylamino-ethyl)-6-methoxy-3a-methyl-10-phenyl-3a,4,9,10-tetrahydro-2,9,10a-triaza-cyclopenta[b]fluorene-1,3-dione] was run?
The IC50 was 31.6 nM.

System: RKO p27 colon adenocarcinoma cells, uninduced (proliferating)
Test: Alamar Blue cell viability assay, RKO p27 uninduced (proliferating)
Type: cell-based
Settings: Homo sapiens, RKOp27; anti-proliferative/cytotoxic activity, 72 hours, without Ponasterone A; read-out: −log EC50 [mol/l] RKO p27 uninduced (proliferating) (converted)
Procedure: The anti-proliferative/cytotoxic activity of the compounds described herein can be tested on subclones of RKO human colon adenocarcinoma cells (Schmidt et al., Oncogene 19, 2423-2429; 2000) using the Alamar Blue cell viability assay (described in O'Brien et al. Eur J Biochem 267, 5421-5426, 2000). The compounds are dissolved as 10 mM solutions in DMSO and subsequently diluted in semi-logarithmic steps. DMSO dilutions are further diluted 1:100 into Dulbecco's modified Eagle's medium (DMEM) containing 10% fetal calf serum to a final concentration twice as much as the final concentration in the test. […] To determine the viability of the cells, 10 μl of an Alamar Blue solution (Biosource) are added and the fluorescence is measured at an extinction of 544 nm and an emission of 590 nm. […] Viabilities are expressed as % values. […]
(§1) To determine the cell cycle specific mode of action, subclones of RKO colon adenocarcinoma cells (RKOp21 or RKOp27 as described by Schmidt et al. in Oncogene 19, 2423-2429; 2000) are seeded into 96 well flat bottom plates at a density of 16000 cells per well in a volume of 50 μl per well in DMEM growth medium with 10% FCS containing 10 μM Ponasterone A. 24 hours after seeding the 50 μl each of the compound dilutions in DMEM medium are added into each well of the 96-well plate. […] Viabilities are expressed as % values. […]

For `COc1ccc2[nH]c3c(c2c1)C[C@@]1(C)C(=O)N(CCN(C)C)C(=O)N1[C@@H]3c1ccccc1` (racemic) [Example 1, (3aSR,10RS)-2-(2-Dimethylamino-ethyl)-6-methoxy-3a-methyl-10-phenyl-3a,4,9,10-tetrahydro-2,9,10a-triaza-cyclopenta[b]fluorene-1,3-dione], which EC50 is on record?
Its EC50 is 63.1 nM.

System: RKO p27 colon adenocarcinoma cells, induced (arrested)
Test: Alamar Blue cell viability assay, RKO p27 induced (arrested) by Ponasterone A
Type: cell-based
Settings: Homo sapiens, RKOp27; anti-proliferative/cytotoxic activity, 72 hours, 10 μM Ponasterone A; read-out: −log EC50 [mol/l] RKO p27 induced (arrested) (converted)
Procedure: as §1, with “plate. Each compound dilution is tested as triplicates. Wells containing untreated control cells are filled with 50 μl DMEM medium containing 1% DMSO. The cells are then incubated with the substances for 72 hours at 37° C. in a humidified atmosphere containing 5% carbon dioxide. To determine the viability of the cells, 10 μl of an Alamar Blue solution (Biosource) are added and the fluorescence is measured at an extinction of 544 nm and an emission of 590 nm.” for “plate.”
Representative values for anti-proliferation/cytotoxicity [measured as −log EC50 (mol/l)] determined in the aforementioned assays follow from the following tables B1 and B2, in which the numbers of the compounds correspond to the numbers of the examples.

How did the EC50 turn out when `COc1ccc2[nH]c3c(c2c1)C[C@@]1(C)C(=O)N(CCN(C)C)C(=O)N1[C@@H]3c1ccccc1` (racemic) [Example 1, (3aSR,10RS)-2-(2-Dimethylamino-ethyl)-6-methoxy-3a-methyl-10-phenyl-3a,4,9,10-tetrahydro-2,9,10a-triaza-cyclopenta[b]fluorene-1,3-dione] was run?
Its EC50 is ≥ 10000 nM.

System: RKO p21 colon adenocarcinoma cells, uninduced (proliferating)
Test: Alamar Blue cell viability assay, RKO p21 uninduced (proliferating)
Type: cell-based
Settings: Homo sapiens; anti-proliferative/cytotoxic activity, 72 hours, without Ponasterone A; read-out: −log EC50 [mol/l] RKO p21 uninduced (proliferating) (converted)
Outline: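 Proliferating RKO subclones, no Ponasterone A inducer, seeded in DMEM/10% FCS and dosed after 24 h with semi-log dilutions in triplicate, 72 h at 37 °C, 5% CO2. Viability by Alamar Blue fluorescence (544/590 nm) vs untreated cells; EC50 from dose-response curves.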

How did the EC50 turn out when `COc1ccc2[nH]c3c(c2c1)C[C@@]1(C)C(=O)N(CCCN2CCOCC2)C(=O)N1[C@@H]3c1ccccc1` (racemic) [Example 61, (3aSR, 10RS)-6-Methoxy-3a-methyl-2-(3-morpholin-4-yl-propyl)-10-phenyl-3a,4,9,10-tetrahydro-2,9,10a-triaza-cyclopenta[b]fluorene-1,3-dione] was run?
The EC50 was ≤ 1000 nM.

For `COc1ccc2[nH]c3c(c2c1)C[C@@]1(C)C(=O)N(CCN(C)C(C)C)C(=O)N1[C@@H]3c1ccccc1` (racemic) [Example 39, (3aSR, 10RS)-2-[2-(Isopropyl-methyl-amino)-ethyl]-6-methoxy-3a-methyl-10-phenyl-3a,4,9,10-tetra-hydro-2,9,10a-triaza-cyclo-penta[b]fluorene-1,3-dione], which EC50 is on record?
Its EC50 is ≤ 1000 nM.

Which EC50 does the source give for `COc1ccc2[nH]c3c(c2c1)C[C@@]1(C)C(=O)N(C)C(=O)N1[C@@H]3c1ccccc1` (racemic) [Example 2, (3aSR,10RS)-6-Methoxy-2,3a-dimethyl-10-phenyl-3a,4,9,10-tetrahydro-2,9,10a-triaza-cyclopenta[b]fluorene-1,3-dione] here?
Its EC50 is ≤ 1000 nM.

`COc1ccc2[nH]c3c(c2c1)C[C@@]1(C)C(=O)N(CCNC(C)(C)C)C(=O)N1[C@@H]3c1ccccc1` (racemic) [Example 27, (3aSR, 10RS)-2-(2-tert-Butylamino-ethyl)-6-methoxy-3a-methyl-10-phenyl-3a,4,9,10-tetrahydro-2,9,10a-triaza-cyclopenta[b]fluorene-1,3-dione] was tested. Which EC50 did it give?
Its EC50 is ≤ 1000 nM.

For `COc1ccc2[nH]c3c(c2c1)C[C@@]1(C)C(=O)N(CCCN)C(=O)N1[C@@H]3c1ccccc1` (racemic) [Example 7, (3aSR,10RS)-2-(3-Amino-propyl)-6-methoxy-3a-methyl-10-phenyl-3a,4,9,10-tetrahydro-2,9,10a-triaza-cyclopenta[b]fluorene-1,3-dione], which EC50 is on record?
Its EC50 is ≤ 1000 nM.

How did the EC50 turn out when `COc1ccc2[nH]c3c(c2c1)C[C@@]1(C)C(=O)N(CCCNC(C)C)C(=O)N1[C@@H]3c1ccccc1` (racemic) [Example 51, (3aSR, 10RS)-2-(3-Isopropylamino-propyl)-6-methoxy-3a-methyl-10-phenyl-3a,4,9,10-tetrahydro-2,9,10a-triaza-cyclopenta[b] fluorene-1,3-dione] was run?
Its EC50 is ≤ 1000 nM.

How did the EC50 turn out when `C#CCNCCN1C(=O)N2[C@H](c3ccccc3)c3[nH]c4ccc(OC)cc4c3C[C@@]2(C)C1=O` (racemic) [Example 29, (3aSR, 10RS)-6-Methoxy-3a-methyl-10-phenyl-2-(2-prop-2-ynylamino-ethyl)-3a,4,9,10-tetrahydro-2,9,10a-triaza-cyclopenta[b]fluorene-1,3-dione] was run?
Its EC50 is ≤ 1000 nM.

How did the EC50 turn out when `CC[C@@]12Cc3c([nH]c4ccc(OC)cc34)[C@@H](c3ccccc3)N1C(=O)N(CCN(C)C)C2=O` (racemic) [Example 5, (3aSR,10RS)-2-(2-Dimethylamino-ethyl)-3a-ethyl-6-methoxy-10-phenyl-3a,4,9,10-tetrahydro-2,9,10a-triaza-cyclopenta[b]fluorene-1,3-dione] was run?
Its EC50 is ≤ 1000 nM.

How did the EC50 turn out when `CCNCCN1C(=O)N2[C@H](c3ccccc3)c3[nH]c4ccc(OC)cc4c3C[C@@]2(C)C1=O` (racemic) [Example 15, (3aSR,10RS)-2-(2-Ethylamino-ethyl)-6-methoxy-3a-methyl-10-phenyl-3a,4,9,10-tetrahydro-2,9,10a-triaza-cyclopenta[b]fluorene-1,3-dione] was run?
Its EC50 is ≤ 1000 nM.

For `CC[C@@]12Cc3c([nH]c4ccc(OC)cc34)[C@@H](c3ccccc3)N1C(=O)N(CCCN(C)C)C2=O` (racemic) [Example 6, (3aSR,10RS)-2-(3-Dimethylamino-propyl)-3a-ethyl-6-methoxy-10-phenyl-3a,4,9,10-tetrahydro-2,9,10a-triaza-cyclopenta[b]fluorene-1,3-dione], which EC50 is on record?
Its EC50 is ≤ 1000 nM.

With `COc1ccc2[nH]c3c(c2c1)C[C@@]1(C)C(=O)N(CCNCCO)C(=O)N1[C@@H]3c1ccccc1` (racemic) [Example 26, (3aSR, 10RS)-2-[2-(2-Hydroxy-ethylamino)-ethyl]-6-methoxy-3a-methyl-10-phenyl-3a,4,9,10-tetrahydro-2,9,10a-triaza-cyclopenta[b] fluorene-1,3-dione] as the molecule, how does the EC50 read?
The EC50 was ≤ 1000 nM.
